Laboratory results published in PMC9124820, “In vitro evaluation of fenfluramine and norfenfluramine as victims of drug interactions” (Pharmacology Research & Perspectives, 2022).

How the values were obtained:
[1] = 0.1 mg/kg FFA twice daily with stiripentol plus clobazam, with or without valproate, steady state; ref Prescribing information: https://www.fintepla.com/; cited from earlier work
[2] = biological target: T1, rCYP2D6 (Homo sapiens, UniProt P10635); assay: Reaction phenotyping with rCYP2D6; type: in vitro ADME; conditions: rCYP2D6, 60 min
T1 construct: purchased Cypex, Ltd; host or cells: Escherichia coli
Method: (§1) For FFA and nFFA reaction phenotyping experiments, LC‐MS/MS experiments were performed using an API 4000 QTRAP or QTRAP 5500 mass spectrometer (SCIEX) with positive electrospray ionization. Chromatography was performed using an Atlantis dC18 analytical column (100 × 2.1 mm, 5 µm; Waters Corporation). Mobile phases were 0.2% v/v formic acid in water and 0.2% v/v formic acid in methanol. FFA and nFFA were eluted at a flow rate of 0.5 mL/min with a linear gradient of 40%−95% methanol from 0.20−2.1 min. The mass transitions monitored were 232.0>109.0 for FFA, 204.0>159.0 for nFFA, 348.0>330.0 for 1’‐hydroxymidazolam‐d4 internal standard (FFA reaction phenotyping), and 262.0>244.0 for hydroxybupropion‐d6 internal standard (nFFA reaction phenotyping). Analyst Instrument Control and Data Processing software (v. 1.6.1) was used for collecting and integrating data (SCIEX). Calibration curves ranging from 1.25 µM−0.01 µM were used to quantify nFFA. Relative quantitation was used to approximate the amount of FFA test material used.
(§2) Methods used to evaluate the role of CYP450s in the metabolism of FFA have been described.[22], [23], [24] […] Supernatant fractions were analyzed by LC‐MS/MS.

[3] = biological target: T2, rCYP2C19 (Homo sapiens, UniProt P33261); assay: Reaction phenotyping with rCYP2C19; type: in vitro ADME; conditions: rCYP2C19, 60 min
T2 construct: purchased Cypex, Ltd; host or cells: Escherichia coli
Method: as §1, §2

[4] = Metabolic stability and metabolite identity, dog liver S9 fractions; type: in vitro ADME; conditions: pH 7.4; 1 µM FFA, dog liver S9 fractions 2 mg protein/mL
Method: LC‐MS/MS analyses to assess metabolic stability and identify the transporter substrate were performed using an API 4000 QTRAP mass spectrometer (SCIEX, Framingham, MA) with electrospray ionization in positive mode. Chromatography was performed using an Atlantis dC18 analytical column (100 × 2.1 mm, 5 µm; Waters Corporation, Milford, MA). Mobile phases were 0.2% v/v formic acid in water and 0.2% v/v formic acid in acetonitrile. For metabolic stability experiments, FFA and metabolites were eluted at a flow rate of 0.6 mL/min, with a linear gradient of 20%−80% acetonitrile from 0.30−2.0 min. […] The mass transitions monitored were 232.0 > 159.0 for FFA and 348.0 > 330.0 for 1ʹ‐OH‐midazolam‐d4 internal standard. […]
FFA (1 or 10 µM) was incubated with liver and intestinal S9 fractions (2 mg protein/mL) at 37 ± 1°C in 0.2‐mL incubation mixtures containing potassium phosphate buffer (50 mM, pH 7.4), magnesium chloride (MgCl2) (3 mM), and EDTA (1 mM, pH 7.4), in the presence or absence of a three‐component cofactor mixture (NADPH‐generating system, uridine diphosphate glucuronic acid (UDPGA) [8 mM], and 3’‐phosphoadenosine 5’‐phosphosulfate [0.5 mM]). […] Supernatant fractions were analyzed by LC‐MS/MS.
To characterize substrate loss and metabolic stability, duplicate samples were analyzed by LC‐MS/MS to determine the change in substrate concentration over the incubation period. […]

T1 sequence (P10635 whole entry): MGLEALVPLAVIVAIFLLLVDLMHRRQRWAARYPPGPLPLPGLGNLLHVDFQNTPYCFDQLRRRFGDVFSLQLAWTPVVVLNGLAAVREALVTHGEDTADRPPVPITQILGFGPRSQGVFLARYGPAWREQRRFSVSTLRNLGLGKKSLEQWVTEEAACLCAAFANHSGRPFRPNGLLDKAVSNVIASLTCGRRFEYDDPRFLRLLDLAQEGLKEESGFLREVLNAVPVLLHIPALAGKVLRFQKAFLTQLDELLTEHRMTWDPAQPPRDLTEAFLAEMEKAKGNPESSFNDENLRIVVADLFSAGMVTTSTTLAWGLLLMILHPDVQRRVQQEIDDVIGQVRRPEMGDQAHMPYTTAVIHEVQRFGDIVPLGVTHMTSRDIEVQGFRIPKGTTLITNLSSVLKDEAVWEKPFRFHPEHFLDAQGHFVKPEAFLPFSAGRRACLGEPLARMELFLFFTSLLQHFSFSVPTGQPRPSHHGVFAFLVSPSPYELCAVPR
T2 sequence (P33261 whole entry): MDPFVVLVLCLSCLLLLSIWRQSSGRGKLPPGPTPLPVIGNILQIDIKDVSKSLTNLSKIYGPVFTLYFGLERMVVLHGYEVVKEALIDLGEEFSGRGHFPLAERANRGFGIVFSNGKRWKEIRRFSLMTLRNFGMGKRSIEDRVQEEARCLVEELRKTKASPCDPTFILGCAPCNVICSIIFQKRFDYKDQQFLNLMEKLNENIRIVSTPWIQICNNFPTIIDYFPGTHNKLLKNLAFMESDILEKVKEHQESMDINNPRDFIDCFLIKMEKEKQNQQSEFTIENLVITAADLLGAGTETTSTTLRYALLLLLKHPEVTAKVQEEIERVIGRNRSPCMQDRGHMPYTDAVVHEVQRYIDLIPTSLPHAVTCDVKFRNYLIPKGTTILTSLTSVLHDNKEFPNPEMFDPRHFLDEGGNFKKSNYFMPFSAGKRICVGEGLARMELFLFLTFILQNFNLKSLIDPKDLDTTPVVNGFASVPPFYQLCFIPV

For CCNC(C)Cc1cccc(C(F)(F)F)c1 (racemic) [FFA, (RS)‐ethyl (α‐methyl‐3‐trifluoromethylphenethyl)amine], the “increase in FFA AUC0‐24” value [1] is given as 166%, the “Disappearance of FFA” value ([2]; 1 μM FFA) is given as 97% and the FFA loss ([2]; 10 μM FFA) is given as 59%. For the same compound, the “Disappearance of FFA” value ([3]; 1 μM FFA) was 49%, the FFA loss ([3]; 10 μM FFA) was 50% and the half-life at 1 µM [4] was 30 min. It also gave a microsomal CLint at 1 µM [4] of 11.6 µL/min/mg.
